# Experimental data as given in the kinase profiling compilation of Christmann-Franck et al. (2016).
# Key:
# Test in all cases: KINOMEscan competition binding
# Details in all cases: compound 10.0 µM
# [1] = biological target: TYK2 JH2 pseudokinase (human) (UniProt P29597)
# [2] = test system: RET (human), P07949 [V804M]
# [3] = biological target: RPS6KA6 KD2 (human) (UniProt Q9UK32)
# [4] = biological target: NEK3 (human) (UniProt P51956)
# [5] = biological target: STK3 (human) (UniProt Q13188)
# [6] = biological target: DCLK2 (human) (UniProt Q8N568)
# [7] = biological target: NEK7 (human) (UniProt Q8TDX7)
# [8] = biological target: JAK2 JH1 catalytic (human) (UniProt O60674)
# [9] = biological target: BLK (human) (UniProt P51451)
# [10] = biological target: BRAF (human) (UniProt P15056)
# [11] = biological target: AAK1 (human) (UniProt Q2M2I8)
# [12] = biological target: EPHA2 (human) (UniProt P29317)
# [13] = biological target: SIK2 (human) (UniProt Q9H0K1)
# [14] = biological target: STK4 (human) (UniProt Q13043)
# [15] = biological target: MAP4K5 (human) (UniProt Q9Y4K4)
# [16] = biological target: RIOK3 (human) (UniProt O14730)
# [17] = biological target: RIOK2 (human) (UniProt Q9BVS4)
# [18] = biological target: PRKD3 (human) (UniProt O94806)
# [19] = biological target: AKT2 (human) (UniProt P31751)
# [20] = biological target: FGR (human) (UniProt P09769)
# [21] = biological target: NUAK2 (human) (UniProt Q9H093)
# [22] = test system: FLT3 (human), P36888 [K663Q]
# [23] = biological target: PRPF4B (human) (UniProt Q13523)
# [24] = biological target: MAPK10 (human) (UniProt P53779)
# [25] = biological target: VRK2 (human) (UniProt Q86Y07)
# [26] = biological target: BRSK1 (human) (UniProt Q8TDC3)
# [27] = biological target: FYN (human) (UniProt P06241)
# [28] = test system: EGFR (human), P00533 [L858R]
# [29] = biological target: PRKAA2 (human) (UniProt P54646)
# [30] = biological target: STK32A (human) (UniProt Q8WU08)
# [31] = biological target: CDK4 CCND1 (human) (UniProt P11802+P24385)
# [32] = biological target: HCK (human) (UniProt P08631)
# [33] = biological target: PAK3 (human) (UniProt O75914)
# [34] = biological target: CSNK2A2 (human) (UniProt P19784)
# [35] = biological target: TNK1 (human) (UniProt Q13470)
# [36] = biological target: NEK9 (human) (UniProt Q8TD19)
# [37] = test system: EIF2AK4 KD2 (human), Q9P2K8 [S808G]
# [38] = biological target: TNIK (human) (UniProt Q9UKE5)
# [39] = biological target: MAP3K13 (human) (UniProt O43283)
# [40] = biological target: CDK18 (human) (UniProt Q07002)
# [41] = biological target: CSNK1G3 (human) (UniProt Q9Y6M4)
# CSNK1G3 (human), sequence (Q9Y6M4 whole entry, looked up): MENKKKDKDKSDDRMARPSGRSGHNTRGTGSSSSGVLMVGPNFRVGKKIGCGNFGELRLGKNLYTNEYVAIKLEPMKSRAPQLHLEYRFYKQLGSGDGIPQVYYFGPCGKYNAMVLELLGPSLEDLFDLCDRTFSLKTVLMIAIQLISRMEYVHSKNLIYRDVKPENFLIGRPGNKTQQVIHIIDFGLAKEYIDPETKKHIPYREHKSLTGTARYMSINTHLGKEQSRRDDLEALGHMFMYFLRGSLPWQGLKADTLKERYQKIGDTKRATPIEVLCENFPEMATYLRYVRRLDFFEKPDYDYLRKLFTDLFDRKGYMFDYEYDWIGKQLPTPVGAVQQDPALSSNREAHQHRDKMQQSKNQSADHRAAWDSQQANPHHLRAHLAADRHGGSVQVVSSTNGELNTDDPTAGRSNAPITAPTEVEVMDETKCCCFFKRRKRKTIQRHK
# PAK3 (human), sequence (O75914 whole entry, looked up): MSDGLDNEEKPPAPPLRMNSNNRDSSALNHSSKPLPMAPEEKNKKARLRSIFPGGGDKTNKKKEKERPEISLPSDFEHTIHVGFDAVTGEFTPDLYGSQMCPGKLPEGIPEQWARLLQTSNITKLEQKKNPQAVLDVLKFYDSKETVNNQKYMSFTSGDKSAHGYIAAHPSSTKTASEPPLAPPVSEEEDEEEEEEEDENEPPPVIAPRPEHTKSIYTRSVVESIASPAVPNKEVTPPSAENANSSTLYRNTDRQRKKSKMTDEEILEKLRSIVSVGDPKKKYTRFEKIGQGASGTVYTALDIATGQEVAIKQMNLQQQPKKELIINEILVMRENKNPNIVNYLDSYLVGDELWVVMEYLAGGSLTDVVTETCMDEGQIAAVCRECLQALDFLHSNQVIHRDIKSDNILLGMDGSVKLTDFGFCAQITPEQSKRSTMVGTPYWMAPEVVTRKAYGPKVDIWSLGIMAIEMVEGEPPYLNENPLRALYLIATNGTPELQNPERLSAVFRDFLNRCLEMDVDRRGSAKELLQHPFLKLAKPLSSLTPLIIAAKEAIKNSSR
# PRKD3 (human), sequence (O94806 whole entry, looked up): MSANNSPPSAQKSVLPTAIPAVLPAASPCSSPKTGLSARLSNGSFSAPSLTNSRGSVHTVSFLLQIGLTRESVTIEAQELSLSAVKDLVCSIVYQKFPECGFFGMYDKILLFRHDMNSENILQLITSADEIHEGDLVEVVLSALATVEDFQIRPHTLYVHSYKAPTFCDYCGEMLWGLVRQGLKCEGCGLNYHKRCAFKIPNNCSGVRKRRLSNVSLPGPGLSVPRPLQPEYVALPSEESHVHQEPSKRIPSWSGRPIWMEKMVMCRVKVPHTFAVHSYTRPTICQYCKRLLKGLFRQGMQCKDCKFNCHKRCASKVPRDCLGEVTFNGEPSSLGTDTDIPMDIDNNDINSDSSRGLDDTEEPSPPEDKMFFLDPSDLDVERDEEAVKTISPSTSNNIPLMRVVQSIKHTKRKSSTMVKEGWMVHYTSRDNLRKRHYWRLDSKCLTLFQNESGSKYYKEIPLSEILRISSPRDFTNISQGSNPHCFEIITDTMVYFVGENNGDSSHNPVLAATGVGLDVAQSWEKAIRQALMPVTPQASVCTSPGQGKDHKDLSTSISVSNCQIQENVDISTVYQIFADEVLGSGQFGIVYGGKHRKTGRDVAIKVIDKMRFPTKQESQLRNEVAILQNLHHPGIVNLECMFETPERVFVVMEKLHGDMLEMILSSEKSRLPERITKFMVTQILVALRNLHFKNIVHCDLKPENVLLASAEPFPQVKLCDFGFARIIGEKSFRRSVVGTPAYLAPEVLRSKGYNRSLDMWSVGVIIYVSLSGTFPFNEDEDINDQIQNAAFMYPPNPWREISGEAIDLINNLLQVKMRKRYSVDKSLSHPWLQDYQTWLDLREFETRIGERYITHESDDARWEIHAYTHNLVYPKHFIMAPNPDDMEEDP
# NUAK2 (human), sequence (Q9H093 whole entry, looked up): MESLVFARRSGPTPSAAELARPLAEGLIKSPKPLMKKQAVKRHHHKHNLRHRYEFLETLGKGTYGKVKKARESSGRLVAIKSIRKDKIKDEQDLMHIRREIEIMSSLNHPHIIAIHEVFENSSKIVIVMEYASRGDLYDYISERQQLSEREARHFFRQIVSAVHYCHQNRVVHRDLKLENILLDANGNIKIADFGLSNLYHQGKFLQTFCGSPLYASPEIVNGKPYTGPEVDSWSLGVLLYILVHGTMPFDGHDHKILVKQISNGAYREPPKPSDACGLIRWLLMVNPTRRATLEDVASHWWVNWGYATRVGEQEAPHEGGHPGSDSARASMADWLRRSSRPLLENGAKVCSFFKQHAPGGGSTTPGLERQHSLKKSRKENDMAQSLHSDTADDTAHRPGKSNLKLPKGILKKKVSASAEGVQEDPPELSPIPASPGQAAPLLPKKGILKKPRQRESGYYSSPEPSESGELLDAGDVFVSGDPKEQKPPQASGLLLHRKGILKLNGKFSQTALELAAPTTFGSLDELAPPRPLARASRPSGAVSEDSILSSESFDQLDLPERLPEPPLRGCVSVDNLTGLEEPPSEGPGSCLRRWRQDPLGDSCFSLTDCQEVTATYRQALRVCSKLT
# SIK2 (human), sequence (Q9H0K1 whole entry, looked up): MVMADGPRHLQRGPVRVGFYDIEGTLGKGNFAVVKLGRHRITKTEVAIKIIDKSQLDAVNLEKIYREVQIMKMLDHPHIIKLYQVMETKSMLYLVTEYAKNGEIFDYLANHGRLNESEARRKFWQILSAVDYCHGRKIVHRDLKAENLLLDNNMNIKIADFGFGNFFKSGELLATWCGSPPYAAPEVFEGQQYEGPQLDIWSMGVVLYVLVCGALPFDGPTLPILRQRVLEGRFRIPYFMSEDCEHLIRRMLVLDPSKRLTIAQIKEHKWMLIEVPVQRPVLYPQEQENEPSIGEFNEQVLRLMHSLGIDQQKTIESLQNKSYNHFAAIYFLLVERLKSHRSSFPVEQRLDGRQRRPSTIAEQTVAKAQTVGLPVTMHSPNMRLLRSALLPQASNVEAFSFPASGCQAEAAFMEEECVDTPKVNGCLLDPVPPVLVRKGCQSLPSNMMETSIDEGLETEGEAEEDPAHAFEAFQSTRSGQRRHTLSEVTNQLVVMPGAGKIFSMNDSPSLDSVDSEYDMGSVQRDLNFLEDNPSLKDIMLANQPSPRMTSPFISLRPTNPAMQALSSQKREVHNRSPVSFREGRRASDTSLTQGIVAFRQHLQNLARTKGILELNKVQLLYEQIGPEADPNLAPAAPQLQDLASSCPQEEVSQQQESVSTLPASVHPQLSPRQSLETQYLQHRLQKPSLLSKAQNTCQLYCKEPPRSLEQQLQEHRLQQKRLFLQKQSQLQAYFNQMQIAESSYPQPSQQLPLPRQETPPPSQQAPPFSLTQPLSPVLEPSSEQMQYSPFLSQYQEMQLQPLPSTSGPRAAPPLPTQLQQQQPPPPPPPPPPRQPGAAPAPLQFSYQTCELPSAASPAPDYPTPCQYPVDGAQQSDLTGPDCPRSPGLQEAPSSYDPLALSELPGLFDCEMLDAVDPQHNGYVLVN
# PRKAA2 (human), sequence (P54646 whole entry, looked up): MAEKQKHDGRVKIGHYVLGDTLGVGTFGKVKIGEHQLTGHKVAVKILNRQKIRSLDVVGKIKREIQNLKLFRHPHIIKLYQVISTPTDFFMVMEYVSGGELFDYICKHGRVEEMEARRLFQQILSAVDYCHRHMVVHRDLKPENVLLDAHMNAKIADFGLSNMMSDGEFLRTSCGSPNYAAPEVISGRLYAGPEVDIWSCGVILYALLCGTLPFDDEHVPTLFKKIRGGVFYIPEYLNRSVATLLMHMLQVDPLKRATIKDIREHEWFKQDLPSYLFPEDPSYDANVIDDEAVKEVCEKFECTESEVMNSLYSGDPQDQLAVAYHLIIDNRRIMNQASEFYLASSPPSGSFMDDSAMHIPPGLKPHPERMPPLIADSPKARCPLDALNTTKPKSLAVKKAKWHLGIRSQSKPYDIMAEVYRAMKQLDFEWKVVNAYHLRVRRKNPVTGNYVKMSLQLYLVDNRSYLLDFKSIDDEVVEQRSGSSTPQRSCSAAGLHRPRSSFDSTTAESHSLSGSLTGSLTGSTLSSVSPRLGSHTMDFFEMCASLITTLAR
# NEK7 (human), sequence (Q8TDX7 whole entry, looked up): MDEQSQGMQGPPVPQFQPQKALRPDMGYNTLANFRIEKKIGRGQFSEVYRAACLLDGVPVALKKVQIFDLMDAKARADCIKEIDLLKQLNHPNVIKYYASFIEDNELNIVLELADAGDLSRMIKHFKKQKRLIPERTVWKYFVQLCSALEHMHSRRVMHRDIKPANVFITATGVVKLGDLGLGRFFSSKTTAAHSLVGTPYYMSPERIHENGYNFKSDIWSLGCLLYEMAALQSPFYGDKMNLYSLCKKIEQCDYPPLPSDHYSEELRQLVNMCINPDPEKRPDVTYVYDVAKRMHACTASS
# RPS6KA6 KD2 (human), sequence (Q9UK32 whole entry, looked up): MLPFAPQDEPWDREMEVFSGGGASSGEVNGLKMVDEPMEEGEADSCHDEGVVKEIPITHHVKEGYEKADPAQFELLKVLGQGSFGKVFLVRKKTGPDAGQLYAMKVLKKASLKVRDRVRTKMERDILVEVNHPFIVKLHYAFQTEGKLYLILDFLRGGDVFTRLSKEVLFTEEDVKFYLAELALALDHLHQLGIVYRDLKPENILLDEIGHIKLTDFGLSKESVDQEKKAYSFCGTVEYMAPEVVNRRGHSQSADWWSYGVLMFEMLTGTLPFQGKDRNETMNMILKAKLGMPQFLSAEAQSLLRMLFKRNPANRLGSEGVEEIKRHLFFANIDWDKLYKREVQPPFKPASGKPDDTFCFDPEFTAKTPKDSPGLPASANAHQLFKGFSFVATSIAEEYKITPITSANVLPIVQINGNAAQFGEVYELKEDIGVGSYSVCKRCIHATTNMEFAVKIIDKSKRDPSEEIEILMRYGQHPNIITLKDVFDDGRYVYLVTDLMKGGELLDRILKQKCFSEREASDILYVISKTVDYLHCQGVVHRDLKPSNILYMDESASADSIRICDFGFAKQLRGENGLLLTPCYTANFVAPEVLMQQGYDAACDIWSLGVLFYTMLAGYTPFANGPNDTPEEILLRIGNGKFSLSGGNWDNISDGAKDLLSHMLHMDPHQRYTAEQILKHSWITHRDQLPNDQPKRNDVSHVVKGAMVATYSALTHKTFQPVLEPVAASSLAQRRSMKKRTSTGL
smiles,measurement,setting,value
COc1ccc(-c2ccc3c(N4CCOCC4)nc(N4C[C@@H](C)O[C@@H](C)C4)nc3n2)cc1CO,"kinase still bound, per cent of control",[1],86%
same,"kinase still bound, per cent of control",[2],94%
same,"kinase still bound, per cent of control",[3],93%
same,"kinase still bound, per cent of control",[4],61%
same,"kinase still bound, per cent of control",[5],85%
same,"kinase still bound, per cent of control",[6],100%
same,"kinase still bound, per cent of control",[7],100%
same,"kinase still bound, per cent of control",[8],71%
same,"kinase still bound, per cent of control",[9],100%
same,"kinase still bound, per cent of control",[10],81%
same,"kinase still bound, per cent of control",[11],93%
same,"kinase still bound, per cent of control",[12],100%
same,"kinase still bound, per cent of control",[13],91%
same,"kinase still bound, per cent of control",[14],100%
same,"kinase still bound, per cent of control",[15],96%
same,"kinase still bound, per cent of control",[16],100%
same,"kinase still bound, per cent of control",[17],60%
same,"kinase still bound, per cent of control",[18],85%
same,"kinase still bound, per cent of control",[19],83%
same,"kinase still bound, per cent of control",[20],100%
same,"kinase still bound, per cent of control",[21],100%
same,"kinase still bound, per cent of control",[22],96%
same,"kinase still bound, per cent of control",[23],100%
same,"kinase still bound, per cent of control",[24],81%
same,"kinase still bound, per cent of control",[25],87%
same,"kinase still bound, per cent of control",[26],100%
same,"kinase still bound, per cent of control",[27],96%
same,"kinase still bound, per cent of control",[28],100%
same,"kinase still bound, per cent of control",[29],100%
same,"kinase still bound, per cent of control",[30],67%
same,per cent of control,[31],70%
same,"kinase still bound, per cent of control",[32],100%
same,"kinase still bound, per cent of control",[33],100%
same,"kinase still bound, per cent of control",[34],98%
same,"kinase still bound, per cent of control",[35],100%
same,"kinase still bound, per cent of control",[36],89%
same,"kinase still bound, per cent of control",[37],66%
same,"kinase still bound, per cent of control",[38],100%
same,"kinase still bound, per cent of control",[39],100%
same,per cent of control,[40],100%
same,"kinase still bound, per cent of control",[41],92%
CCC(=O)N1CCN(c2ccc(-n3c(=O)ccc4cnc5ccc(-c6cnc7ccccc7c6)cc5c43)cc2C(F)(F)F)CC1,"kinase still bound, per cent of control",[1],55%
same,"kinase still bound, per cent of control",[2],69%
same,"kinase still bound, per cent of control",[3],86%
same,"kinase still bound, per cent of control",[4],100%
same,"kinase still bound, per cent of control",[5],24%
same,"kinase still bound, per cent of control",[6],100%
same,"kinase still bound, per cent of control",[7],90%
same,"kinase still bound, per cent of control",[8],65%
same,"kinase still bound, per cent of control",[9],75%
same,"kinase still bound, per cent of control",[10],59%
same,"kinase still bound, per cent of control",[11],75%
same,"kinase still bound, per cent of control",[12],59%
same,"kinase still bound, per cent of control",[13],23%
same,"kinase still bound, per cent of control",[14],7.6%
same,"kinase still bound, per cent of control",[15],8.1%
same,"kinase still bound, per cent of control",[16],90%
same,"kinase still bound, per cent of control",[17],24%
same,"kinase still bound, per cent of control",[18],100%
same,"kinase still bound, per cent of control",[19],100%
same,"kinase still bound, per cent of control",[20],78%
same,"kinase still bound, per cent of control",[21],100%
same,"kinase still bound, per cent of control",[22],23%
same,"kinase still bound, per cent of control",[23],100%
same,"kinase still bound, per cent of control",[24],31%
same,"kinase still bound, per cent of control",[25],100%
same,"kinase still bound, per cent of control",[26],78%
same,"kinase still bound, per cent of control",[27],49%
same,"kinase still bound, per cent of control",[28],100%
same,"kinase still bound, per cent of control",[29],74%
same,"kinase still bound, per cent of control",[30],100%
same,per cent of control,[31],100%
same,"kinase still bound, per cent of control",[32],77%
same,"kinase still bound, per cent of control",[33],100%
same,"kinase still bound, per cent of control",[34],11%
same,"kinase still bound, per cent of control",[35],6.8%
same,"kinase still bound, per cent of control",[36],100%
same,"kinase still bound, per cent of control",[37],99%
same,"kinase still bound, per cent of control",[38],39%
same,"kinase still bound, per cent of control",[39],100%
same,per cent of control,[40],97%
same,"kinase still bound, per cent of control",[41],100%
